The text below walks through data of US10813920B2, “Drug for treating corneal endothelium by promoting cell proliferation or inhibiting cell damage” (THE DOSHISHA, priority 2013, dated 2020).

Structures are written as SMILES.

Test [1] has as its system corneal endothelial cells. The experiment in a line: Western blotting of cyclin dependent kinase inhibiting factors and G1/S transition molecules in cultured corneal endothelial cells. Type of test: cell-based, human.
The subject of another test is p38 MAP kinase signal. The experiment in a line: Western blotting of phosphorylated ATF2, downstream molecule of p38 MAP kinase signal. Format: cell-based, human. The following applies: Western blotting after 20 days from stimulation; 10 μM and 30 μM. On the procedure:
*Human corneal endothelial cells (HCEC, where the cells were obtained and culturing method thereof): HCEC was cultured as follows. In short, Descemet's membrane including corneal endothelial cells was peeled off from a corneal for research purchased from the Seattle Eye Bank, and the corneal endothelial cells were mechanically peeled off with a basal membrane. […] Specifically, after digestion at 37° C., HCEC obtained from individual corneas was resuspended in a culture medium and plated on a well of a 12-well plate coated with FNC Coating Mix®. The culture medium was prepared in accordance with a partially-modified disclosed protocol. In short, a basal cultural medium containing OptiMEM-I (Life Technologies), 8% FBS, 5 ng/mL of epithelial growth factor (EGF) (Sigma-Aldrich Co., St. Louis, Mo.), 20 μg/mL of ascorbic acid (Sigma-Aldrich), 200 mg/L calcium chloride (Sigma-Aldrich), 0.08% chondroitin sulfate (Wako Pure Chemical Industries, Osaka) and 50 μg/mL of gentamicin was prepared and an acclimated medium was collected after inactivated 3T3 fibroblasts were cultured. The 3T3 fibroblasts were inactivated as previously described. […] Immunostaining was applied to the cells for observation with a fluorescence microscope. […]

The mark [2] stands for this setting: Western blotting after 20 days, 10 μM and 30 μM vs control.
The mark [3] stands for this setting: Western blotting, 10 μM, after 12 hours and 24 hours.

With `C[S+]([O-])c1ccc(-c2nc(-c3ccncc3)c(-c3ccc(F)cc3)[nH]2)cc1` (stereo not shown) [SB203580, 4-(4-fluorophenyl)-2-(4-methylsulfinylphenyl)-5-(4-pyridyl)-1H-imidazole], in test [1] (setting [2]), the “expression of p16” value is recorded as “suppressed”, the “expression of p21” value is reported as “suppressed” and the “expression of p27” value is “suppressed”. Besides, in test [1] (setting [3]), the “Rb protein phosphorylation (p-pRb)” value is reported as “promoted”, the “cyclin D1 expression” value is on record as “promoted” and the “cyclin D3 expression” value was “promoted”. The “phosphorylation of ATF2” value in the test with p38 MAP kinase signal was “suppressed”.
